Square brackets hold non-standard residues; d marks the D form. Peptide text beside a SMILES is read from it.
Tests used:
[1] = tested on: LPS-stimulated RAW264.7 cells; assay: TNF-α release, ELISA; format: cell-based, mouse; details: 25 μM, 1 h pretreatment, LPS 20 ng/mL for 16 h
Procedure: The presence of nitrite in culture media strongly validates the indication of NO production which was assessed by Griess assay. Briefly, RAW264.7 cell (1 × 10^5) were seeded in s 96-well plate in triplicate. Peptides (1, 5, 25, and 50 μM) were pretreated 1 h and then stimulated with 20 ng/mL of LPS purified from E. coli O111:B4 (Sigma-Aldrich, St. Louis, MO, USA) for 16 h. After incubation, equal volumes of culture media and Griess reagent were added and color change was read at 540 nm. The concentration of nitrite content was assessed using a standard curve of sodium nitrite. In addition, release of inflammatory cytokines including TNF-α and IL-6 in the culture media was quantified using an enzyme-linked immunosorbent assays kit (ELISA; R&D Systems, Minneapolis, MN, USA) and the assay was performed according to the kit protocol. The assay was conducted in triplicate, and the concentrations of TNF-α and IL-6 were evaluated by measuring the absorbance at 450 nm using a microplate reader.

[2] = tested on: ICR mice; assay: Cytotoxicity in vivo (serum AST, ALT, BUN); design: species or system mouse; details: single intraperitoneal dose 1 mg/kg and 5 mg/kg, 24 h, 5 mice/group
Procedure: A preliminary toxicity study was conducted to determine the cytotoxic effect of Pro10-1 and Pro10-1D on ICR mice. Four-week-old mice (n = 5) were injected intraperitoneally with peptides (1 mg/Kg and 5 mg/Kg, respectively) for 24 h. After treatment, blood was withdrawn and serum was collected and then subjected to AST, ALT, and BUN analyses.

[3] = LPS neutralization, limulus amebocyte lysate (LAL) assay; format: biochemical, Escherichia coli O111:B4; details: 50 μM peptide, 20 ng/mL LPS, 30 min at 37 °C, LAL chromogenic kit, 405 nm; triplicate
Procedure: The LPS-neutralizing activity of all peptides was determined using the Pierce LAL chromogenic endotoxin quantitation kit (ThermoFisher Scientific, MA, USA). All peptides including standard (Polymixin B) at varying concentrations (3.12, 6.25, 12.5, 25, and 50 μM in endotoxin-free water) were allowed to bind with 20 ng/mL of LPS in a 96-well plate for 30 min at 37 °C. To this, an equal volume (10 μL) of LAL reagent was added and incubated for 10 min at 37 °C and then 20μL of LAL chromogenic substrate was added. After 15 min incubation at 37 °C, the reaction was stopped by 25% acetic acid and the reduction in yellow color formation due to the substrate was measured at 405 nm on an absorbance microplate reader. The experiment was conducted in triplicate, and the changes in absorbance due to peptide-LPS interaction are indicated as percent LPS neutralization.

[4] = tested on: E. coli K1-infected mice; assay: E. coli K1 septic shock mouse model; format: in vivo
Procedure: For sepsis model, we used E. coli K1 as an infection strain [47], and mice were randomly sorted in to 6 groups (5 mice/group). Control mice received I.P. injection of phosphate buffered saline (PBS, pH = 7.4) whereas Pro10-1 and Pro10-1D were injected with 1 mg/Kg and served as a peptide control. Mice infected with E. coli K1 (6 × 10^6 CFU/mouse, I.P.) served as a sepsis control. For treatment measures, mice were pretreated with 1 mg/kg of the respective peptides for 1 h and then infected with E. coli K1 like the septic mice. After 16 h, mice were euthanized by cervical dislocation under overdose of ether anesthesia. The blood samples, lung, liver, and kidney tissues were excised and processed for biochemical and histological analysis. Briefly, organ lysates of lung, liver, and kidney harvested from ice-cold PBS were evaluated for number of bacterial colonies. Endotoxin levels in the serum contents were quantified according to the kit protocol using Pierce LAL Chromogenic Endotoxin Quantitation Kit (Thermo Fisher Scientific, MA, USA). The levels of AST, ALT, and BUN in serum and the inflammatory cytokine levels in the serum or lung lysates were quantified as described previously.
Lung tissues of the control and an experimental group of mice fixed by paraformaldehyde (4% v/v) were evaluated for histological changes. Briefly, […] lung tissue sections were deparaffinized in xylene, rehydrated with graded ethanol, and then stained with H&E stain. The stained section was examined for neutrophil infiltration and other morbid changes with a light microscope (Eclipse Ni; Nikon, Tokyo, Japan).

[5] = tested on: TLR4; assay: Immunoblot of TLR4 expression; format: cell-based, mouse; details: 20 μM peptide, LPS 50 ng/mL, RAW264.7 cells
Procedure: The protein content of all experimental groups of RAW264.7 cells in triplicate were extracted using radio immunoprecipitation buffer (RIPA) containing protease phosphatase inhibitor. The supernatant was collected by centrifugation (12,000× g) at 4 °C for 20 min and stored at −80 °C until further use. Similarly, cytoplasmic and nuclear fractionation was extracted using an NE-PER Nuclear and Cytoplasmic Extraction Reagents kit (ThermoFisher Scientific, MA, USA), according to the manufacturer’s protocol. Protein contents were quantified using a bicinchoninic acid (BCA) protein assay kit (Thermo Fisher Scientific Inc., MA, USA) and 30 μg (v/v) was electrophoresed by SDS-PAGE using a 10% (w/v) polyacrylamide resolving gel, electro-transferred to a PVDF membrane, and then blocked using 5% (w/v) non-fat milk. The membranes were incubated with primary antibodies (1:1000 dilution) at 4 °C overnight, followed by incubation with their respective secondary antibody for 1 h at room temperature. The antigen-antibody complexes were examined using the WestGlow^TM Chemiluminescent Substrate (Biomax Co., Ltd, Seoul, South Korea) under iBright™ CL1000 Imaging System (Thermo Fisher Scientific Inc., MA, USA). The densitometric analysis of protein signals were quantified using the Image J software (Version 1.52, National Institutes of Health, MD, USA).

[6] = tested on: all bacterial strains; assay: Mean MIC over all bacterial strains (GM); format: cell-based; details: mean MIC of all bacterial strains of Table 2
Procedure: Briefly, the microplates were inoculated with two-fold serial dilutions of each peptides in Mueller–Hinton (MH) media and then seeded with log-phase culture of aforementioned bacterial suspensions (2 × 10^5 CFU/mL). The microplates were incubated for 16 h at 37 °C, and absorbance was read at 600 nm using microplate reader SpectraMAX (Molecular Devices, San Jose, CA, USA).

[7] = 1 mg/kg I.P. 1 h before E. coli K1 6 × 10^6 CFU/mouse I.P., 16 h, 5 mice/group
[8] = 1 mg/kg I.P. pretreatment, septic mice, ELISA
[9] = 1 mg/kg I.P. pretreatment, E. coli K1-infected mice = 100%

Structure (SMILES): CC[C@@H](C)[C@@H](NC(=O)[C@@H](C)NC(=O)[C@@H](CC(C)C)NC(=O)[C@@H](Cc1c[nH]c2ccccc12)NC(=O)[C@@H](CC(C)C)NC(=O)[C@@H](CCCNC(=N)N)NC(=O)[C@H](N)CCCNC(=N)N)C(=O)N[C@H](Cc1c[nH]c2ccccc12)C(=O)N[C@H](CCCNC(=N)N)C(=O)N[C@H](CCCNC(=N)N)C(N)=O [Pro10-1D] (H-[dR][dR][dL][dW][dL][dA][dI][dW][dR][dR]-NH2; N-terminus assumed)
- inhibition of LPS-induced TNF-α level [1]: effective inhibition
- AST, ALT, and BUN elevation in serum [2]: did not observe any clinical significance
- inhibition of the activation of LPS (LPS neutralization) [3]: 58.45%
- reduction of the number of bacteria in kidney [4, 7]: ~71%
- reduction of the number of bacteria in liver [4, 7]: ~87%
- reduction of the number of bacteria in lung [4, 7]: approximately 73%
- lung pathological changes (PMN infiltration), H&E histology ([4]; 1 mg/kg I.P. pretreatment, E. coli K1-infected mice): effectively alleviated the pathological changes
- suppression of IL-6 level in lung tissue [4, 8]: 62%
- suppression of IL-6 level in serum [4, 8]: 56%
- suppression of TNF-α level in lung tissue [4, 8]: 51%
- suppression of TNF-α level in serum [4, 8]: 45%
- reduction of serum endotoxin levels (LAL test) [4, 9]: over 33%
- serum ALT level reduced to [4, 9]: 48%
- serum AST level reduced to [4, 9]: 26%
- serum BUN level reduced to [4, 9]: 37%
- LPS-induced TLR4 expression [5]: effectively suppressed
- GM (geometric mean of MIC values of all bacterial strains) [6]: 4.86 µM
